The assay has as its target T1, Bovine renal cortical plasma membranes (Bos taurus, UniProt Q1LZF7).
T1 construct: from tissue; host or cells: bovine renal cortex plasma membranes
T1 sequence (Q1LZF7 29-589): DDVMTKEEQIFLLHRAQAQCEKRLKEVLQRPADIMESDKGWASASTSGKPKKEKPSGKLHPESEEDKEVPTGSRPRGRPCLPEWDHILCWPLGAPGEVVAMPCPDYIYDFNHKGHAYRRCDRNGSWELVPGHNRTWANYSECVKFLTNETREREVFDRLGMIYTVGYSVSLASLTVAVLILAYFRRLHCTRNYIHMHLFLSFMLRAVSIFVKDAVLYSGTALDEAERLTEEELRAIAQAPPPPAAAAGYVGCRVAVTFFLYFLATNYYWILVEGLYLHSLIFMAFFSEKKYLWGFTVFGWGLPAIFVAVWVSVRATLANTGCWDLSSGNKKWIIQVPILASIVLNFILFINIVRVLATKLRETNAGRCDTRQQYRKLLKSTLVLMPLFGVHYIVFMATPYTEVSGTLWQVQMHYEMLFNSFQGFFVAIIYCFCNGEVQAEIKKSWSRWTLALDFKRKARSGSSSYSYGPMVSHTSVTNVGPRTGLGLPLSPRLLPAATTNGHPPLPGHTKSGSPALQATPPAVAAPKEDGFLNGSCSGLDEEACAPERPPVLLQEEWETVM
As to the kind of experiment: HCF binding (receptor) assay with [Nle8,18,(125I)-Tyr34]bPTH(1-34)NH2 radioligand. As to conditions: radioligand [Nle8,18,(125I)-Tyr34]bPTH(1-34)NH2, 30 min at 21° C. The method, then:
HCF analogues were analysed in a new receptor assay (Goldman et al., Endocrinol. (1988) 123: 1468-1475) which modified the assay reported in Rosenblatt et al., Endocrin. 107: 545-550 (1980). The binding assay used [Nle^8,18 (^125 I)-Tyr^34 ]bPTH (1-34)NH2 which was purified by HPLC (Novapak C18, 32-35% CH3 CN in 0.1% TFA) and was stored as aliquots in 25 mM TrisHCl/1%BSA at -70° C. Bovine renal cortical plasma membranes were incubated with radioligand (25,000 cpm) in the absence or presence of HCF analogues in a Tris-containing buffer (250 μl) for 30 min. at 21° C. Once equilibrium was reached, bound and free radioligand were separated by centrifugation.
High specific binding (85%) to bovine renal cortical membranes was obtained consistently.

As for `CC[C@H](C)[C@H](NC(=O)[C@H](CC(C)C)NC(=O)[C@H](Cc1c[nH]cn1)NC(=O)[C@H](Cc1c[nH]cn1)NC(=O)[C@H](CC(C)C)NC(=O)[C@H](Cc1ccccc1)NC(=O)[C@H](Cc1ccccc1)NC(=O)[C@H](CCCNC(=N)N)NC(=O)[C@H](CCCNC(=N)N)NC(=O)[C@H](CCCNC(=N)N)NC(=O)[C@H](CC(C)C)NC(=O)[C@H](CC(=O)O)NC(=O)[C@H](CCC(N)=O)NC(=O)[C@@H](NC(=O)[C@@H](N)CO)[C@@H](C)CC)C(=O)N[C@@H](C)C(=O)N[C@@H](CCC(=O)O)C(=O)N[C@H](C(=O)N[C@@H](Cc1c[nH]cn1)C(=O)N[C@H](C(=O)N[C@@H](C)C(N)=O)[C@@H](C)O)[C@@H](C)CC` [hHCF(14-34)NH2], the Ki was 1400 ± 83 nM.

For the origin of these results see patent US5114843A, “Humoral hypercalcemic factor antagonists” (Merck & Co., Inc., priority 1991, dated 1992).
